Laboratory results taken from publication PMC12067093, “Discovery and optimisation of a covalent ligand for TRIM25 and its application to targeted protein ubiquitination” (Chemical Science, 2025).

Legend:
[1] = molecular target: T1, TRIM25 PRYSPRY and BRD4 BD2 ternary complex (Homo sapiens, UniProt O60885+Q14258); assay: Recombinant protein ternary complex pull-down; type: binding; details: TRIM25 PRYSPRY pre-labelled with compound 50 μM overnight, intermediate wash step, then BRD4 BD2
T1 construct: made in house; host or cells: Sf9 insect cells (TRIM25 PRYSPRY)
T1 sequence (Q14258 435-630, other chains not shown): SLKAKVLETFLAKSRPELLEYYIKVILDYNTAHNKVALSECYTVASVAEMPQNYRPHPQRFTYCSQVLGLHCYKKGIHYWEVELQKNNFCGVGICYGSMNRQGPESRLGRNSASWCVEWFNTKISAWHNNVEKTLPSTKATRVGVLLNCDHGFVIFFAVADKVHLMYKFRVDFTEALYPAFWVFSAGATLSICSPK
Procedure: 3 25 mM HEPES, 50 mM NaCl for 20 h at 4 °C, before purification by gel filtration into
4 buffer 20 mM Bis-Tris pH 7.5, 150 mM NaCl, 0.5 mM TCEP. Commercially available
5 sitting drop crystallization screens were dispensed at 20 °C using an automated
6 Mosquito machine (TTP Labtech). Crystals grew from a pre-labelled protein-ligand
8 drops containing 100 nL protein-ligand complex and 100 nL reservoir solution. For X-
9 ray data acquisition, crystals were cryoprotected with perfluoropolyether cryo oil
10 (Hampton Research, HR2-814). Diffraction data were collected on beamline I04 (λ =
11 0.9537 Å) at Diamond Light Source (Oxford, UK), processed using DIALS17 and
12 merged and scaled using AIMLESS.18 The structure of the complex was solved by
13 molecular replacement using the available TRIM25 PRYSPRY structure (6FLM)10 as
15 in Coot20 and refined using Refmac21 and Phenix.19 Coordinates and structure factors
16 are deposited in the Protein Data Bank under accession code 9I0T. Further details on
17 data collection and refinement statistics are summarised in Supplementary Table 1.
20 Recombinant TRIM25 PRYSPRY (100 µM) in 25 mM HEPES pH 7.5, 50 mM NaCl,
23 acquired with Topspin (Bruker) at timepoint 0 (immediately after mixing protein with
24 compound), and after 4 h incubation.
26 Recombinant protein ternary complex pull-down assays
27 His10-TRIM25 or His6-TRIM25 PRYSPRY (4 µM) was pre-labelled with either DMSO
28 (1%) or heterobifunctional compounds (HB1, HB2 or HB3, 50 µM, 1% DMSO) and
29 captured on His Mag Sepharose Ni magnetic beads, and washed once to remove
30 excess unreacted compound, as described above.
32 Substrate (BRD4 or BRD4 BD2) (4 µM, assuming 1:1 with on-bead captured TRIM25-
33 compound complex) was added to the on-bead captured TRIM25-compound complex,
1 and incubated in capture buffer 50 mM Tris pH 7.5, 150 mM NaCl, 5 mM MgCl2, 20 mM
2 imidazole, 0.5 mM TCEP, 0.5% IGEPAL for 2 h at 4 °C, with rotation. Beads were
3 washed three times with 500 µL capture buffer, and mixed with 12 µL NuPAGE LDS
4 sample buffer (1x, Invitrogen, NP0007). Samples were analysed by SDS-PAGE and […]

[2] = molecular target: T2, BRD4 (ubiquitination by TRIM25) (Homo sapiens, UniProt O60885+Q14258); assay: In vitro targeted protein ubiquitination time course assay for BRD4; type: biochemical; details: TRIM25 4 μM pre-labelled with compound 50 μM, 20 h, 4 °C, excess removed (HB1a 4 μM added directly); 60 min at 30 °C
T2 construct: Recombinant full-length BRD4 (short isoform); Full-length TRIM25 (4 μM) was pre-labelled with either DMSO or compound HB1, HB2 or HB3; made in house; host or cells: Sf9 insect cells (full-length TRIM25); UBA1 and UBCH5B were made as previously described
T2 sequence (Q14258 whole entry, other chains not shown, canonical isoform): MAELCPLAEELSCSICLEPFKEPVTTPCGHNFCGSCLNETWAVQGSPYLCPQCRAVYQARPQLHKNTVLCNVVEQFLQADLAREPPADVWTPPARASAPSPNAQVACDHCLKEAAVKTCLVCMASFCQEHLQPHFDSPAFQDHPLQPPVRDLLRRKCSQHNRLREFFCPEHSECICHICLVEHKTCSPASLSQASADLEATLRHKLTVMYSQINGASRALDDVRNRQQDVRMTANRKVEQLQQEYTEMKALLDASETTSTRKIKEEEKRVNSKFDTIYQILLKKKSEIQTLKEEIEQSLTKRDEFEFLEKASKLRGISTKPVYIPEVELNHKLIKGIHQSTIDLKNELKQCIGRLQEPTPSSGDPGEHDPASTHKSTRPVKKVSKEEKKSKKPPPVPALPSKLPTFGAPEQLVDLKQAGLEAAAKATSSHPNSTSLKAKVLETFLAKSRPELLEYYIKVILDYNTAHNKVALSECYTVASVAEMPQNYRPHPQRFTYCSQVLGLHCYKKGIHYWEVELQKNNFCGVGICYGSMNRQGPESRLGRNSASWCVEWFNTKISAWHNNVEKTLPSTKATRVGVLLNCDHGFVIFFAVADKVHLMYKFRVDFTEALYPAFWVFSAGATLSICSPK
Procedure: 1 containing 500 mM DTT (ThermoFisher Scientific, R0861). Timepoint at 0 min
2 indicates the sample taken prior to the addition of ATP. Samples were analysed by
3 SDS-PAGE and imaged by Coomassie staining, and using the Odyssey CLx Infrared
4 Imaging System (Li-Cor).
6 For targeted protein ubiquitination assays with compounds HB1 – HB3, His10-TRIM25
8 DMSO) or compound HB1, HB2 or HB3 (50 µM, 1% DMSO) in buffer 50 mM HEPES
9 pH 7.5, 150 mM NaCl, 0.5 mM TCEP for 20 h at 4 °C. Protein-compound complexes
11 capture buffer 50 mM Tris pH 7.5, 150 mM NaCl, 5 mM MgCl2, 20 mM imidazole, 0.5
12 mM TCEP, 0.5% IGEPAL for 2 h at 4 °C, with rotation. Beads were washed once with
13 capture buffer to remove excess unreacted compound. Ubiquitination assay reaction
14 mixture comprised components as described above, with the addition of 4 µM BRD4
15 substrate. For reaction with control compound HB1a (JQ1-2PEG), 4 µM HB1a was
16 added directly to the ubiquitination assay reaction mixture. Samples were analysed as
17 described above, and by western blotting against BRD4 (Abcam, ab128874, 1:1000),
18 which was detected by anti-rabbit-HRP secondary antibody (Dako, P0399, 1:2000).
19 Blots were developed in Amersham ECL Western Blotting Detection Reagent (Cytiva,
20 RPN2106), imaged on a ChemiDoc MP Imaging System (Bio-Rad), and bands were
21 analysed in ImageLab (Bio-Rad). […]

in vitro ternary complex formation (pull-down) [1]	Compound	targeted ubiquitination of BRD4 by TRIM25 [2]
Ternary complex formation was observed	Cc1cc(C(=O)N2CCCN(C(=O)CCl)CC2)ccc1-c1cccc(C(=O)NCCOCCOCCNC(=O)C[C@@H]2N=C(c3ccc(Cl)cc3)c3c(sc(C)c3C)-n3c(C)nnc32)c1 [HB1]	heterobifunctional compound-induced ubiquitination of BRD4
–	Cc1cc(C(=O)N2CCCN(C(=O)CCl)CC2)ccc1-c1ccccc1 [Compound 10]	no targeted ubiquitination of BRD4 was observed
Ternary complex formation was observed	Cc1cc(C(=O)N2CCCN(C(=O)CCl)CC2)ccc1-c1cccc(C(=O)NCCOCCOCCOCCOCCNC(=O)C[C@@H]2N=C(c3ccc(Cl)cc3)c3c(sc(C)c3C)-n3c(C)nnc32)c1 [HB3]	heterobifunctional compound-induced ubiquitination of BRD4
Ternary complex formation was observed	Cc1cc(C(=O)N2CCCN(C(=O)CCl)CC2)ccc1-c1cccc(C(=O)NCCOCCOCCOCCNC(=O)C[C@@H]2N=C(c3ccc(Cl)cc3)c3c(sc(C)c3C)-n3c(C)nnc32)c1 [HB2]	heterobifunctional compound-induced ubiquitination of BRD4
